The values below come from patent US20250042914A1, “PIKFYVE KINASE INHIBITOR” (HANMI PHARM. CO., LTD., priority 2021, published 2025).

A word on the IC50: it is the concentration that inhibits the measured activity by half.

SMILES strings stand for the structures.

Sequence of human-derived PIKfyve kinase (Q9Y2I7 whole entry): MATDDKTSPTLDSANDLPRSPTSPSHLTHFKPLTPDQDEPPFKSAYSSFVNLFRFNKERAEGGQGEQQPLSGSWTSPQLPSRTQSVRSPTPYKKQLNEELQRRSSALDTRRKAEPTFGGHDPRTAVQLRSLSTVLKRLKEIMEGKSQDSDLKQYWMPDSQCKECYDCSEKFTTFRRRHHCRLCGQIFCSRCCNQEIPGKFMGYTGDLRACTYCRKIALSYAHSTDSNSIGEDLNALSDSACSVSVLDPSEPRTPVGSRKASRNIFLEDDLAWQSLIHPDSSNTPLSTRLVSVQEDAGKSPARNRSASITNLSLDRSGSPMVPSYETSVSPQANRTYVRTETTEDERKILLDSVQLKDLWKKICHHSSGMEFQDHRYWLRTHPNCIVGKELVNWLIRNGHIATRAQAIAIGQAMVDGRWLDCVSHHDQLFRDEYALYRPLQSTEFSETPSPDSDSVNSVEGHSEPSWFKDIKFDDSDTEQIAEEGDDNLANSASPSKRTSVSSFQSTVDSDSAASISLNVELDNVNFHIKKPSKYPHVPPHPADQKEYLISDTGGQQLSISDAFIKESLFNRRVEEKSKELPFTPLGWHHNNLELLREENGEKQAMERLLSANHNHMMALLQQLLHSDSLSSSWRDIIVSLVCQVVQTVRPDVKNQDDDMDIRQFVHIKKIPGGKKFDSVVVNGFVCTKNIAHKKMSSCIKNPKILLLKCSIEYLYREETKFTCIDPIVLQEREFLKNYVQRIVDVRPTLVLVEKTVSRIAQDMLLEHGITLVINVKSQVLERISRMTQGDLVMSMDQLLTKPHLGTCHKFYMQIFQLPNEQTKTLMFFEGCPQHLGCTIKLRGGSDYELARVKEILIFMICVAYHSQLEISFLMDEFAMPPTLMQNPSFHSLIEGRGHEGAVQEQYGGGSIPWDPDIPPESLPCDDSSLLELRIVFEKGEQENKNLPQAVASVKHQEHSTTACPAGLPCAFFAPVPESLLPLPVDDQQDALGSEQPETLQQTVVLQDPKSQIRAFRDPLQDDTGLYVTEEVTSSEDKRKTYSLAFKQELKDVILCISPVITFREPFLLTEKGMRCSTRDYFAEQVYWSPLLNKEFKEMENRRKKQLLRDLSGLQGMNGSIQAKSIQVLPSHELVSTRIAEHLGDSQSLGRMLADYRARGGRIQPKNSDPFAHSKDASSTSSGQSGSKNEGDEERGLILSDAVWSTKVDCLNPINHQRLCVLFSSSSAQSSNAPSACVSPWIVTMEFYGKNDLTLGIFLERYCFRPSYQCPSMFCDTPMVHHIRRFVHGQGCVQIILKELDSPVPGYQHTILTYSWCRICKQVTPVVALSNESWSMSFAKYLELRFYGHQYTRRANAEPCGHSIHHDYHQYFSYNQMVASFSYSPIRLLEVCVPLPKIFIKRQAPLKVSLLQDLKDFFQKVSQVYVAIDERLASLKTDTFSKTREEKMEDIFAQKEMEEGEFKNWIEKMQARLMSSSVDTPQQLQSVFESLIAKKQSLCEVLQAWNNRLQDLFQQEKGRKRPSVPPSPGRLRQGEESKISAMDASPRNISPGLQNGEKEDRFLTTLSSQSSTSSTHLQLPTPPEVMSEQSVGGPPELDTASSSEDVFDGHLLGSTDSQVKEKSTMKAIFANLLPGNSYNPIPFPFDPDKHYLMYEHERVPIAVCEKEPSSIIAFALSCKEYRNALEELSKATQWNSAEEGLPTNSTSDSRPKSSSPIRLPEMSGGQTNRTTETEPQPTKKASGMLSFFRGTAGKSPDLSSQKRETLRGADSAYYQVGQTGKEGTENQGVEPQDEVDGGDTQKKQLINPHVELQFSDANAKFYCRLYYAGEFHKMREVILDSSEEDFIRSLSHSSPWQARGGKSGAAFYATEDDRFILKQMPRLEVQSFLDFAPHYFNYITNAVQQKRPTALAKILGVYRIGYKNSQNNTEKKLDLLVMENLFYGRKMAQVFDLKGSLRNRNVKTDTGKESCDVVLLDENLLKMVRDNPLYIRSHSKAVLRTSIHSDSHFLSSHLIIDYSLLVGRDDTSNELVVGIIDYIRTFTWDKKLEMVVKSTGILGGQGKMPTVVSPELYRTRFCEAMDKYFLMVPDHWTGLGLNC

This experiment deals with human-derived PIKfyve kinase (Homo sapiens (Human), UniProt Q9Y2I7). Description: PIKfyve enzyme inhibition assay (ADP-Glo). It counts as biochemical. The note with it: PIKfyve enzyme inhibitory assay; PI(3)P 10 μm, ATP 2 μm, 60 minutes. Here is the method:
For each of the compounds prepared in Examples 1 to 33, the PIKfyve enzyme inhibitory activity was measured by using a QS S Assis PIKFYVE (PIP5K3)_ADP-Glo™ Kit (Cat. #11-118) made by Carna Bioscience. 5 μL of each of human-derived PIKfyve kinase, PI(3)P, and ATP solution was added to a 384-well plate (such that final concentrations of each solution are 375 ng/ml, 10 μm, and 2 μm, respectively). The compound to be evaluated underwent serial dilution according to the set concentrations, and 5 μL of the diluted solution was added to each well and caused a reaction for 60 minutes. MgCl2 was mixed in ADP-Glo™ solution (Promega, Cat. #V9102) to a final concentration of 100 mM, and 20 μL of the mixed solution was added to each well and caused a reaction at room temperature for 40 minutes. 40 μL of kinase detection solution was added to each well and caused a reaction at room temperature for 40 minutes. Then, the luminescence signals were detected by using a Synergy™ NEO microplate analyzer. Well to which no enzyme was added were used as a negative control, whereas wells to which no drug was added were used as a positive control, so as to calculate the enzyme inhibitory ability (%) of drugs. The 50% inhibitor concentration (IC50) values were calculated by using a GraphPad Prism software.
In Table 1, when the case where the IC50 value was 50 nM or less was indicated as A, the case where the IC50 value was greater than 50 nM but equal to or less than 100 nM was indicated as B, and the case where the IC50 value was greater than 100 nM was indicated as C.
For orientation: In ADP-Glo the light output rises with the ADP produced.
In the case of `COCCN1CCC(C(=O)Nc2cccc(-c3nc(N4CCOCC4)c4sc(-c5cccnc5)cc4n3)c2)CC1` [Example 27, 1-(2-methoxyethyl)-N-(3-(4-morpholino-6-(pyridin-3-yl)thieno[3,2-d]pyrimidin-2-yl)phenyl)piperidine-4-carboxamide], the IC50 was 50 to 100 nM. In the case of `O=CN1CCC(C(=O)Nc2cccc(-c3nc(N4CCOCC4)c4sc(-c5cccnc5)cc4n3)c2)CC1` [Example 28, 1-formyl-N-(3-(4-morpholino-6-(pyridin-3-yl)thieno[3,2-d]pyrimidin-2-yl)phenyl)piperidine-4-carboxamide] it was more than 100 nM. In the case of `CC(=O)N1CCC(C(=O)Nc2cccc(-c3nc(N4CCOCC4)c4sc(-c5cccnc5)cc4n3)c2)CC1` [Example 29, 1-acetyl-N-(3-(4-morpholino-6-(pyridin-3-yl)thieno[3,2-d]pyrimidin-2-yl)phenyl)piperidine-4-carboxamide] it was more than 100 nM; in that of `COC(=O)N1CCC(C(=O)Nc2cccc(-c3nc(N4CCOCC4)c4sc(-c5cccnc5)cc4n3)c2)CC1` [Example 30, methyl 4-((3-(4-morpholino-6-(pyridin-3-yl)thieno[3,2-d]pyrimidin-2-yl)phenyl)carbamoyl)piperidine-1-carboxylate], more than 100 nM. Take `CCOC(=O)N1CCC(C(=O)Nc2cccc(-c3nc(N4CCOCC4)c4sc(-c5cccnc5)cc4n3)c2)CC1` [Example 31, ethyl 4-((3-(4-morpholino-6-(pyridin-3-yl)thieno[3,2-d]pyrimidin-2-yl)phenyl)carbamoyl)piperidine-1-carboxylate]: the IC50 is not above 50 nM. `O=C(Nc1cccc(-c2nc(N3CCOCC3)c3sc(-c4cccnc4)cc3n2)c1)[C@H]1CC[C@@H](O)CC1` [Example 32, (1s,4s)-4-hydroxy-N-(3-(4-morpholino-6-(pyridin-3-yl)thieno[3,2-d]pyrimidin-2-yl)phenyl)cyclohexane-1-carboxamide]: the IC50 was not above 50 nM. `O=C(Nc1cccc(-c2nc(N3CCOCC3)c3sc(-c4cnco4)cc3n2)c1)c1cocn1` [Example 33, N-(3-(4-morpholino-6-(oxazol-5-yl)thieno[3,2-d]pyrimidin-2-yl)phenyl)oxazole-4-carboxamide]: the concentration for half-maximal inhibition (IC50) is not above 50 nM.
